{"source": "patent US20230355763A1", "about": "“NANOPARTICLE VACCINES AND USES THEREOF FOR PROPHYLAXIS AND TREATMENT OF ATHEROSCLEROSIS USING PEPTIDE 210 AS AN ANTIGEN” (CEDARS-SINAI MEDICAL CENTER, priority 2022, published 2023)", "key": {"[1]": {"molecular_target": "T1, HLA-A*02:01 (Homo sapiens, UniProt P04439, D140Y/D185E/D98H/E176V/E277Q/G131W/G231S/I119V/I121R/I166T/I218V/L300P/L318F/N151K/N90K/P208A/P217A/Q86G/Q94H/R138H/R169H/T345S)", "T1 construct": "purchased ProImmune (contracted REVEAL assay service)", "assay": "REVEAL binding assay of 9-mer P210 peptides", "settings": "for binding to HLA-A*02:01 (REVEAL binding score), in words: tested by ProImmune", "procedure": "The human Class-I HLA that occurs with the highest frequency in North America is HLA-A*02:01; and P210 epitope binding to HLA-A*02:01 was tested by ProImmune using the REVEAL assay. The REVEAL assay used 9-mer sequential peptides of P210 to assess binding to HLA-A*02:01 (Table 2): a plurality of 9-amino acid fragments, each identical to residues 1-9, 2-10, 3-11, 4-12, 5-13, 6-14, 7-15, 8-16, 9-17, 10-18, 11-19, or 12-20 of P210. […] ApOBKTTKQSFDL (SEQ ID NO:2) pentamer was able to detect a small but significant population of P210-specific CD8+ T cells in PBMCs from healthy HLA-A*02:01(+) volunteers (FIG. 7B-7E).\n(§1) Proimmune was contracted to screen for potential binding epitopes in P210 to HLA-A*02:01. […] For pentamer staining, commercially available HLA-A*02:01 typed cryo-preserved PBMCs (Immunospot) were thawed, rinsed in anti-aggregation solution (Immunospot) and divided into 2×10^6 cell aliquots. ApOBKTTKQSFDL (SEQ ID NO:2) pentamer staining was performed according to manufacturer's instruction, with the HLA-A*02:01 Negative Pentamer (ProImmune) as negative control. Each sample stained for ApOBKTTKQSFDL (SEQ ID NO:2) pentamer had its corresponding negative control stain. Cells were washed and then stained for CD8 (LT8) andddCD19 (HIB19). Cells were again washed after staining and resuspended in 1% paraformaldehyde in 1% BSA/0.1% sodium azide and analyzed. ApOBKTTKQSFDL (SEQ ID NO:2) pentamer positive cells for each sample were determined based on the corresponding Negative Pentamer."}, "[2]": {"system": "human PBMCs", "assay": "Activation Induced Marker (AIM) assay in human PBMC", "assay_type": "cell-based", "procedure": "Cryo-preserved PBMCs were thawed, rinsed in anti-aggregation solution (Immunospot), and seeded in culture plates at a density of 3×10^6 cells per ml of RPMI 1640 medium supplemented with 10% heat-inactivated pooled human serum and 1× antibiotic/antimycotic. After resting for 4 hours, cells were preincubated with 0.5 mg/ml anti-CD40 antibody for 15 minutes then stimulated with 20 μg/ml P210 peptide, 0.5× T cell stimulation cocktail containing PMA and ionomycin (Thermo Fisher), or CMV (pp65) Peptide Pool (StemCell Tech) as a non-relevant antigen control, whereas cells without treatment served as non-stimulated control. Cells were harvested 16 hours after seeding, stained for viability (LIVE/DEAD Fixable Aqua Dead Stain Kit, Thermo Fisher), and subjected to cell surface staining for flow cytometry using the following antibodies: CD4, CD8, CD25, CD69, OX40 (CD134), CD137 (4-1 BB) and CD154 (CD40L). Isotypes were used as staining control and eFluor506 labelled CD14, CD16 and CD19 antibodies were used as dump staining to exclude B cells, dendritic cells, macrophages, granulocytes, eosinophil cells and neutrophil cells. The results are expressed as fold change (ratio between the signal in the antigen stimulated condition and the signal in the unstimulated condition) for each subject, consistent with the reported AIM assay."}, "[3]": {"system": "PBMCs from HLA-A*02:01(+) volunteers", "assay": "ApoB KTTKQSFDL pentamer(+) CD8+ T cells in human PBMCs cultured with P210", "assay_type": "cell-based", "settings": "PBMCs cultured with 20 μg/ml P210 for 5 days", "procedure": "as §1"}, "[4]": {"system": "human PBMCs", "assay": "Peptide stimulation of human PBMC (T effector / effector memory, Response Index)", "assay_type": "cell-based", "settings": "20 μg/ml P210, 72 h; ACS PBMCs compared to controls", "procedure": "Cryo-preserved PBMCs were thawed, rinsed and cultured as in AIM assay but without resting. Cells were stimulated with 20 μg/ml P210 peptide or 0.5× T cell stimulation cocktail containing phorbol 12-myristate 13-acetate (PMA) and ionomycin (Thermo Fisher) with non-treated cells serving as negative control. Culture medium was added at ⅓ of the starting volume 48 hours later to replenish the nutrients in the medium. Cells were harvested 72 hours after seeding, stained for viability (LIVE/DEAD Fixable Aqua Dead Stain Kit, ThermoFisher), and subjected to cell surface staining for flow cytometry using the following antibodies: CD3, CD4, CD8, CD45RA, CD45RO, CD62L, and CD197 (CCR7). Isotypes were used as staining control. CD4^+ or CD8^+ T Effector cells were gated on CD45RO^+CD62L^−CD197^−. T Effector Memory cells were CD45RO^+CD45RA^−CD62L^−CD197^−.\nResults were Tabulated as Response Index Using the Following Calculation:\n(% peptide stimulation−% no stimulation)/(% cocktail stimulation)×100.\nThe results are expressed as Response Index to account for inherent variations introduced by culturing cells in vitro over time, controlled for by assessing response relative to baseline cell phenotype (% no stimulation) and maximal stimulation (% cocktail stimulation) for each subject PBMC. Each data point represents one subject."}, "[5]": {"system": "A2Kb Tg ApoE-/- mice", "assay": "Functional expression of A2Kb transgene (A2V7 immunization)", "assay_type": "in vivo, mouse", "settings": "male mice, 20 μg/100 μl s.c. in IFA; compared to IFA-injected mice, P<0.05", "procedure": "Male A2Kb Tg ApoE^−/− mice were immunized with the HLA-A*02:01-restricted peptide A2V7 from human hepatitis C virus (HCV NS5a 1987-1995, VLSDFKTWL (SEQ ID NO:34); ProImmune) emulsified in incomplete Freund's adjuvant (IFA; MP Biomedicals) at 9 and 10 weeks of age by subcutaneous injection at a dose of 20 μg/100 μl. Mice immunized with 100 μl IFA alone served as control. Mice were euthanized at 11 weeks of age. HLA-A*02:01 restricted antigen specific immune response was evaluated by flow cytometric analysis of splenocytes stained with CD19 (6D5), CD8a (KT15), and PE-conjugated HLA-A*02:01/A2V7-pentamer (ProImmune)."}, "[6]": {"settings": "20 μg/ml P210, 16 h, ACS patients compared to control subjects"}}, "data": [{"sequence": "KTTKQSFDL (listed as Homo sapiens) [Peptide 1]", "values": [{"measurement": "binding to HLA-A*02:01 (REVEAL binding score)", "setting": "[1]; sequential 9-mer P210 peptides", "result": "KTTKQSFDL*"}, {"measurement": "binding to HLA-A*02:01 (REVEAL binding score), in words", "setting": "[1]; listed as First 9-mer sequence in P210", "result": "high binding score"}, {"measurement": "binding to HLA-A*02:01 (REVEAL binding score), in words", "setting": "[1]; listed as first 9-mer", "result": "scored well, comparable to the positive control"}]}, {"sequence": "KTTKQSFDLSVKAQYKKNKH (listed as Homo sapiens) [Peptide P210, ApoB-100 derived peptide P210 (ApoB-100 3136-3155)]", "values": [{"measurement": "CD8+CD69+CD134+ T cells after P210 stimulation", "setting": "[2]; [6]", "result": "no such increase was observed"}, {"measurement": "mean increase in CD4+CD69+CD134+ T cells after P210 stimulation", "setting": "[2]; [6]", "result": 1.5, "unit": "fold"}, {"measurement": "markers for other AIM(+) cells (CD25+CD134+, CD69+CD154+, CD134+CD137+)", "setting": "[2]; after P210 stimulation, ACS vs controls", "result": "not different compared to Controls"}, {"measurement": "tested samples with an increase of pentamer specific CD8+ T cells", "setting": "[3]", "result": "5 out of 8"}, {"measurement": "CD4+ T effector cell response to P210", "setting": "[4]", "result": "not significantly different"}, {"measurement": "CD8+ T effector memory response to P210", "setting": "[4]", "result": "significant increase"}, {"measurement": "CD8+ T effector response to P210", "setting": "[4]", "result": "significant increase"}]}, {"sequence": "VLSDFKTWL [Peptide A2V7, HLA-A*02:01-restricted peptide from human hepatitis C virus (HCV NS5a 1987-1995)]", "values": [{"measurement": "A2V7-pentamer+ CD8+ T cells in the spleen", "setting": "[5]", "result": "significantly increased"}]}]}
